Measured values published in US20170015555A1, “LONG-TERM PRESERVATION AND NOVEL APPLICATION OF CHLOROUS ACID AQUEOUS SOLUTION FORMULATION” (priority 2013, published 2017).

Key:
[1] = test system: Enterohemorrhagic Escherichia coli O111; assay: Permeability of pathogenic microbes when treatment sheets were laid on vomit; assay type: cell-based; conditions: 1000 ppm available chlorine
From the text: (§1) 1) Chlorous acid aqueous solution formulation (see Example 1: Table 11) Treatment sheet (material: 100% cotton): (about 27×40 cm) *Impregnated at a ratio of weight of treatment sheet (g): amount of liquid (ml)=1:3 2) Imitation vomit (hereinafter, referred to as vomit) Miso solution: adjusted to pH 2 with hydrochloric acid 3) Test Microbes that were used E. coli: Escherichia coli IF03927 Staphylococcus aureus: Staphylococcus aureus IF0 12732 Thermoduric Microbes (Bacillus cereus): Bacillus cereus NBRC15305 Microbes of the genus Salmonella: Salmonella Enteritidis IF03313 Enterohemorrhagic Escherichia coli 0157: Escherichia coli 0157 Enterohemorrhagic Escherichia coli 0111: Escherichia coli 0111 Enterohemorrhagic Escherichia coli 026: Escherichia coli O26
(§2) Permeability of pathogenic microbes into a treatment sheet when treating vomit was examined to compare effects of preventing secondary contamination. (1) Imitation vomit is spread in an area about the size of an A4 sheet. (2) 30 agent solution-containing treatment sheets were laid thereon and left standing for 10 minutes. (3) Treatment sheets were removed one at a time from the top. After diluting with saline, the sample was spread in a petri dish and cultured.

[2] = test system: Enterohemorrhagic Escherichia coli O26; assay: as above; assay type: cell-based; conditions: 1000 ppm available chlorine
From the text: as §1, §2

[3] = test system: Salmonella Enteritidis IF03313; assay: as above; assay type: cell-based; conditions: 1000 ppm available chlorine
From the text: as §1, §2

[4] = Deodorizing effect (chemical deodorization, gas detector tube); conditions: spray 20 cc
From the text: In order to evaluate tests on deodorizing effects, the present Example examined deodorizing effects by using standards regarding air freshening and deodorization ([II]-2 Method of Testing Deodorizing Efficacy (Chemical Deodorization)) set forth by the Air Fresheners and Deodorizers Conference (http://www.houkou.gr.jp/) as the efficacy testing method, which is adopted by Japan Food Research Laboratories.
Ammonium odor: Ammonium Standard Solution II (Wako Pure Chemical Industries, for testing malodorous substances) Amine odor: methyl mercaptan standard solution (Wako Pure Chemical Industries, for testing malodorous substances) Sulfur odor: hydrogen sulfide (self-made, used hydrogen sulfide that was generated by adding sulfuric acid to zinc sulfide)
Gas detector tube made by GASTEC Corporation Ammonium odor: Detector tube ammonium 3 L made by GASTEC Corporation Amino odor: Detector tube methyl mercaptan 71 made by GASTEC Corporation Sulfur odor: Detector tube hydrogen sulfide 4 LL made by GASTEC Corporation
Tests were conducted in compliance with ([II]-2 Method of Testing Deodorizing Efficacy (Chemical Deodorization)) set forth by the Air Fresheners and Deodorizers Conference.
The tests were carried out by static culture method, using a commercially-available airbag with a spigot having a volume of about 10 L as test containers. The volume of airbags was appropriately changed in accordance with the size of the product.
The bags were filled with odorless air. Malodor concentrations were measured over time at room temperature (about 20° C.). (3 points or higher, detection tube method (FIG. 16), measured by an instrument analysis method or olfactory measurement method. When decrease in the blank was observed, the decrease was suitably corrected. When measuring by olfactory measuring method, the airbag spigot was opened for direct sniffing, or gas was transferred to an odor bag while wearing a mask to perform olfactory measurement in an autonomic respiration form. Measured air was not returned to the source).

OCl [Sodium Hypochlorite, sodium hypochlorite]
1.1 × 10^4: Microbe count, 8 sheets laid on imitation vomit ([3]; Day 7 at 25° C.)
50 ppm: residual concentration of hydrogen sulfide, before correction ([4]; Table 58, before spraying)
0: residual concentration of hydrogen sulfide, after correction (Control = 100) ([4]; Table 57, 0 h after spraying) | residual concentration of hydrogen sulfide, after correction (Control = 100) ([4]; Table 57, 3 h after spraying) | residual concentration of hydrogen sulfide, after correction (Control = 100) ([4]; Table 57, 6 h after spraying) | residual concentration of hydrogen sulfide, after correction (Control = 100) ([4]; Table 57, 9 h after spraying) | residual concentration of hydrogen sulfide, after correction (Control = 100) ([4]; Table 57, 24 h after spraying) | residual concentration of hydrogen sulfide, after correction (Control = 100) ([4]; Table 58, 0 h after spraying) | residual concentration of hydrogen sulfide, after correction (Control = 100) ([4]; Table 58, 3 h after spraying) | residual concentration of hydrogen sulfide, after correction (Control = 100) ([4]; Table 58, 6 h after spraying) | residual concentration of hydrogen sulfide, after correction (Control = 100) ([4]; Table 58, 9 h after spraying) | residual concentration of hydrogen sulfide, after correction (Control = 100) ([4]; Table 58, 24 h after spraying)
>10^6: Microbe count, 1 sheet laid on imitation vomit ([1]; Day 7 at 25° C.) | Microbe count, 2 sheets laid on imitation vomit ([1]; Day 7 at 25° C.) | Microbe count, 3 sheets laid on imitation vomit ([1]; Day 7 at 25° C.) | Microbe count, 4 sheets laid on imitation vomit ([1]; Day 7 at 25° C.) | Microbe count, 5 sheets laid on imitation vomit ([1]; Day 7 at 25° C.) | Microbe count, 6 sheets laid on imitation vomit ([1]; Day 7 at 25° C.) | Microbe count, 8 sheets laid on imitation vomit ([1]; Day 7 at 25° C.) | Microbe count, 10 sheets laid on imitation vomit ([1]; Day 7 at 25° C.) | Microbe count, 20 sheets laid on imitation vomit ([1]; Day 7 at 25° C.) | Microbe count, 30 sheets laid on imitation vomit ([1]; Day 7 at 25° C.) | Microbe count, 1 sheet laid on imitation vomit ([2]; Day 7 at 25° C.) | Microbe count, 2 sheets laid on imitation vomit ([2]; Day 7 at 25° C.) | Microbe count, 3 sheets laid on imitation vomit ([2]; Day 7 at 25° C.) | Microbe count, 4 sheets laid on imitation vomit ([2]; Day 7 at 25° C.) | Microbe count, 5 sheets laid on imitation vomit ([2]; Day 7 at 25° C.) | Microbe count, 6 sheets laid on imitation vomit ([2]; Day 7 at 25° C.) | Microbe count, 8 sheets laid on imitation vomit ([2]; Day 7 at 25° C.) | Microbe count, 10 sheets laid on imitation vomit ([2]; Day 7 at 25° C.) | Microbe count, 20 sheets laid on imitation vomit ([2]; Day 7 at 25° C.) | Microbe count, 30 sheets laid on imitation vomit ([2]; Day 7 at 25° C.) | Microbe count, 1 sheet laid on imitation vomit ([3]; Day 7 at 25° C.) | Microbe count, 2 sheets laid on imitation vomit ([3]; Day 7 at 25° C.) | Microbe count, 3 sheets laid on imitation vomit ([3]; Day 7 at 25° C.) | Microbe count, 4 sheets laid on imitation vomit ([3]; Day 7 at 25° C.) | Microbe count, 5 sheets laid on imitation vomit ([3]; Day 7 at 25° C.) | Microbe count, 6 sheets laid on imitation vomit ([3]; Day 7 at 25° C.)
2.0 × 10^2: Microbe count, 1 sheet laid on imitation vomit ([3]; Day 0 at 25° C.)
<10: Microbe count, 1 sheet laid on imitation vomit ([1]; Day 0 at 25° C.) | Microbe count, 2 sheets laid on imitation vomit ([1]; Day 0 at 25° C.) | Microbe count, 3 sheets laid on imitation vomit ([1]; Day 0 at 25° C.) | Microbe count, 4 sheets laid on imitation vomit ([1]; Day 0 at 25° C.) | Microbe count, 5 sheets laid on imitation vomit ([1]; Day 0 at 25° C.) | Microbe count, 6 sheets laid on imitation vomit ([1]; Day 0 at 25° C.) | Microbe count, 8 sheets laid on imitation vomit ([1]; Day 0 at 25° C.) | Microbe count, 10 sheets laid on imitation vomit ([1]; Day 0 at 25° C.) | Microbe count, 20 sheets laid on imitation vomit ([1]; Day 0 at 25° C.) | Microbe count, 30 sheets laid on imitation vomit ([1]; Day 0 at 25° C.) | Microbe count, 1 sheet laid on imitation vomit ([2]; Day 0 at 25° C.) | Microbe count, 2 sheets laid on imitation vomit ([2]; Day 0 at 25° C.) | Microbe count, 3 sheets laid on imitation vomit ([2]; Day 0 at 25° C.) | Microbe count, 4 sheets laid on imitation vomit ([2]; Day 0 at 25° C.) | Microbe count, 5 sheets laid on imitation vomit ([2]; Day 0 at 25° C.) | Microbe count, 6 sheets laid on imitation vomit ([2]; Day 0 at 25° C.) | Microbe count, 8 sheets laid on imitation vomit ([2]; Day 0 at 25° C.) | Microbe count, 10 sheets laid on imitation vomit ([2]; Day 0 at 25° C.) | Microbe count, 20 sheets laid on imitation vomit ([2]; Day 0 at 25° C.) | Microbe count, 30 sheets laid on imitation vomit ([2]; Day 0 at 25° C.) | Microbe count, 2 sheets laid on imitation vomit ([3]; Day 0 at 25° C.) | Microbe count, 3 sheets laid on imitation vomit ([3]; Day 0 at 25° C.) | Microbe count, 4 sheets laid on imitation vomit ([3]; Day 0 at 25° C.) | Microbe count, 5 sheets laid on imitation vomit ([3]; Day 0 at 25° C.) | Microbe count, 6 sheets laid on imitation vomit ([3]; Day 0 at 25° C.) | Microbe count, 8 sheets laid on imitation vomit ([3]; Day 0 at 25° C.) | Microbe count, 10 sheets laid on imitation vomit ([3]; Day 0 at 25° C.) | Microbe count, 20 sheets laid on imitation vomit ([3]; Day 0 at 25° C.) | Microbe count, 30 sheets laid on imitation vomit ([3]; Day 0 at 25° C.) | Microbe count, 20 sheets laid on imitation vomit ([3]; Day 7 at 25° C.) | Microbe count, 30 sheets laid on imitation vomit ([3]; Day 7 at 25° C.)
7.1 × 10^2: Microbe count, 10 sheets laid on imitation vomit ([3]; Day 7 at 25° C.)
40 ppm: residual concentration of hydrogen sulfide, before correction ([4]; Table 57, before spraying)
0 ppm: residual concentration of hydrogen sulfide, before correction ([4]; Table 57, 0 h after spraying) | residual concentration of hydrogen sulfide, before correction ([4]; Table 57, 3 h after spraying) | residual concentration of hydrogen sulfide, before correction ([4]; Table 57, 6 h after spraying) | residual concentration of hydrogen sulfide, before correction ([4]; Table 57, 9 h after spraying) | residual concentration of hydrogen sulfide, before correction ([4]; Table 57, 24 h after spraying) | residual concentration of hydrogen sulfide, before correction ([4]; Table 58, 0 h after spraying) | residual concentration of hydrogen sulfide, before correction ([4]; Table 58, 3 h after spraying) | residual concentration of hydrogen sulfide, before correction ([4]; Table 58, 6 h after spraying) | residual concentration of hydrogen sulfide, before correction ([4]; Table 58, 9 h after spraying) | residual concentration of hydrogen sulfide, before correction ([4]; Table 58, 24 h after spraying)
100: residual concentration of hydrogen sulfide, after correction (Control = 100) ([4]; Table 57, before spraying) | residual concentration of hydrogen sulfide, after correction (Control = 100) ([4]; Table 58, before spraying)
